Reference: ChEMBL document CHEMBL1126818, “Isosteric replacement in a series of -substituted monophosphonate calcium antagonists” (Bioorg Med Chem Lett, 1993)

Assays:
Rattus norvegicus = species: Rattus norvegicus; experiment: Inhibition of contractions induced by K+ depolarization in rat dorsal aorta; format: functional
[1] = The compound was tested in vitro for its ability to displace [3H]PN-200-110 from Calcium Channel in rat brain membranes.; format: cell membranes
[2] = The compound was tested in vitro for its ability to displace [3H]PN-200-110 from rat brain membranes; format: tissue-based, Membrane

Structure (SMILES) | Ki [1] | Ki [2] | Kb (Rattus norvegicus)
COC(=O)C1=C(C)NC(C)=C(C(=O)OC)C1c1ccccc1[N+](=O)[O-] [NIFEDIPINE] | 0.53 nM | – | 0.5 nM
CCCCOP(=O)(CC(CCc1ccccc1)OC(C)=O)OCCCC (configuration not stated) | 55 nM | – | 25 nM
CCCCCC(=O)OC(Cc1ccccc1)CP(=O)(OCCCC)OCCCC (configuration not stated) | 560 nM | – | 211 nM
CCOP(=O)(Cc1ccc(-c2nc3ccccc3s2)cc1)OCC [FOSTEDIL] | – | – | > 1000 nM
CCCCOC(=O)NC(CCc1ccccc1)CP(=O)(OCCCC)OCCCC (configuration not stated) | > 1000 nM | – | 122 nM
CCCCNC(=O)OC(CCc1ccccc1)CP(=O)(OCCCC)OCCCC (configuration not stated) | > 1000 nM | – | 38 nM
CCCCOP(=O)(CC(CCc1ccccc1)OS(C)(=O)=O)OCCCC (configuration not stated) | – | > 1000 nM | > 1000 nM
CCCCOP(=O)(CC(CCc1ccccc1)OC(=O)C1CC1)OCCCC (configuration not stated) | > 1000 nM | – | 628 nM
CCCCOP(=O)(CC(CCc1ccccc1)OP(=O)(OCCCC)OCCCC)OCCCC (configuration not stated) | 385 nM | – | 76 nM

Continued, in another order:

Ki [1] | Ki [2] | Structure (SMILES) | Kb (Rattus norvegicus)
> 1000 nM | – | CCCCCC(=O)OC(CCCc1ccccc1)CP(=O)(OCCCC)OCCCC (configuration not stated) | > 1000 nM
> 1000 nM | – | CCCCOP(=O)(CC(CCc1ccccc1)OC(=O)c1ccccc1)OCCCC (configuration not stated) | 662 nM
> 1000 nM | – | CCCCOC(=O)OC(CCc1ccccc1)CP(=O)(OCCCC)OCCCC (configuration not stated) | 255 nM
> 1000 nM | – | CCCCOP(=O)(CC(CCc1ccccc1)OC(=O)C(F)(F)F)OCCCC (configuration not stated) | > 1000 nM
> 1000 nM | – | CCCCNC(=O)NC(CCc1ccccc1)CP(=O)(OCCCC)OCCCC (configuration not stated) | 129 nM
> 1000 nM | – | CCCCOP(=O)(CC(CCc1ccccc1)NS(=O)(=O)c1ccc(C)cc1)OCCCC (configuration not stated) | 348 nM
> 1000 nM | – | CCCCOP(=O)(CC(CCc1ccccc1)OC(=O)C(C)(C)C)OCCCC (configuration not stated) | 105 nM
51 nM | – | CCCCCC(=O)OC(CCc1ccccc1)CP(=O)(OCCCC)OCCCC (configuration not stated) | 6.6 nM
23 nM | – | CCCCOP(=O)(CC(CCOc1ccccc1)CP(=O)(OCCCC)OCCCC)OCCCC [BELFOSDIL] | 0.5 nM
> 1000 nM | – | CCCCOP(=O)(CC(CCc1ccccc1)NP(=O)(OCC)OCC)OCCCC (configuration not stated) | 62 nM
